Measured values published in patent US20120058150A1, “Methods for Delivering Compositions by Electrospraying a Medical Device” (COLORADO STATE UNIVERSITY RESEARCH FOUNDATION, priority 2010, published 2012).

Test: gentamicin sulfate loading efficiency of E-sprayed DOPS coatings
Format: physicochemical
Details: 14 kV E-spray voltage compared with the other voltages (FIG. 4)

Q: For gentamicin sulfate, which “gentamicin sulfate loading efficiencies” value is on record?
A: The value was “significantly greater”.
